Measured values as given in patent US11236122B2, “Triterpene amine derivatives” (DFH THERAPEUTICS, priority 2018, dated 2022).

Assays:
HIV-1 clade C ZM247 = assay: CA-SP1 accumulation assay (immunoblot), clade C ZM247; format: cell-based; conditions: head prints K3016
Protocol: Compound evaluation was performed against a panel of HIV-1 Clade C isolates K3016, pindieC1, and ZM247. The three isolates all contain the SP1-A7V. Clade B NL4-3 was included as the […] control.
Plasmids, tissue culture and transfections. HIV-1 clade B molecular clone NL4-3 and cade C clones K3016, ZM247 were obtained from Dr. Christina Ochsenbauer, University of Alabama, USA. Both K3016 and ZM247 were constructed using viral strains from South Africa. The HIV-1 clade C molecular clone pindieC1 was obtained from Dr. Uday Ranga, JNCASR, India. This clone was constructed using an HIV strain from India. HEK-293T and TZM-bl cells were propagated in Dulbecco's modified Eagle's medium (DM4EM) containing 10% fetal bovine serum (FBS). HUT-R5 cells were propagated in RPM 1640 medium supplemented with 10% FBS. For transfections, HEK-293T cells were grown in six well plates to about 80% confluency. Cells were transfected using Lipofectamine 2000 (invitrogen, USA) following manufacturer's recommendations. For viral replication assays, HUT-R5 T-cells were transfected using DEAE dextran as described in Waheed, A. A., Ono, A., and Freed, E. O.; Methods for the study of HIV-1 assembly; Methods Mol. Biol. Clifton N.J. 485, 163-184 (2009).
Preparation of viral stocks. Virus stocks were prepared by transfecting HEK-293T cells with HIV-1 DNAs (3 μg). 24 h post-transfection, the culture medium was replaced with fresh DMEM and incubated for another 2 h. Compounds tested were maintained in the culture throughout transfection. The culture supernatant was centrifuged at 845×g for 3 min to remove cellular debris. The clarified supernatants were filtered (pore size 0.45 µm filter disc) to remove residual cellular contaminants. For determination of viral infectivity, the un-concentrated virus was used to infect TZM-bl cells. For the CA-SP1 accumulation assay, the virus was pelleted by ultra-centrifugation at 210,100×g for 1 h at 4° C. using SW41Ti rotor (Beckman Coulter, USA).
CA-SP1 accumulation assay. To measure accumulation of CA-SP1, immunoblot analysis of virus-associated proteins was performed. The virus pellet was resuspended in radioimmunoprecipitation assay (RIPA) buffer (50 mM Tris-HCl pH 8.0, 150 mM sodium chloride, 1.0% NP-40, 0.5% sodium deoxycholate, 0.1% SDS) containing 1×protease inhibitor cocktail (Roche, Germany). The viral lysates were subjected to SDS-polyacrylamide gel electrophoresis (15% gel). Proteins were transferred to polyvinylidene difluoride membranes and reacted with HIV-IgG obtained from the NIH AIDS Reagent Program (catalog no. 3957) followed by incubation with HRP-conjugated anti-human secondary antibodies (GE Healthcare, UK). The proteins were visualized by enhanced chemiluminescence (Pierce, USA) and the bands were quantified using ImageJ software (http://imagej.nih.gov/ij/).

[1] = tested on: HIV-1 clade C K3016 in HUT-R5 cells; assay: Antiviral assay in HUT-R5 cells (p24), K3016; format: cell-based; conditions: Human immunodeficiency virus 1, 192 h, 8 days, mean ± SEM, 2 experiments
Protocol: Antiviral assays. HUT-R5 cells were infected with normalized HIV-1 clade C K3016 virus stocks at 37° C. for 1 h. Cells were then maintained for 8 days in the presence of serial dilutions of the compounds assayed. After 8 days, the HIV-1 p24 concentration in the virus supernatants was measured to monitor virus replication. The 50% inhibitory concentrations (IC50s) were determined that reduced HIV-1 p24 levels to 50% relative to DMSO-only controls.

SMILES | % CA-SP1 Accumulation K3016 10 nM (HIV-1 clade C ZM247) [%] | % CA-SP1 Accumulation K3016 100 nM (HIV-1 clade C ZM247) [%] | IC50 [1] [nM]
C=C(C)[C@@H]1CC[C@]2(CCNCCN3CCN(S(C)(=O)=O)CC3)CC[C@]3(C)[C@H](CC[C@@H]4[C@@]5(C)CC[C@H](OC(=O)CC(C)(C)C(=O)O)C(C)(C)[C@@H]5CC[C@]43C)[C@@H]12 [Compound 51ff, (3β)-17-[2-[[2-[4-(Methylsulfonyl)piperazin-1-yl]ethyl]amino]ethyl]-28-norlup-20(29)-en-3-ol, 3-(1-Hydrogen 2,2-Dimethylbutanedioate)] | 12.8 | 19.1 | 2.27 ± 0.56
C=C(C)[C@@H]1CC[C@]2(CCNCCN3CCN(Cc4ccccc4)CC3)CC[C@]3(C)[C@H](CC[C@@H]4[C@@]5(C)CC[C@H](OC(=O)CC(C)(C)C(=O)O)C(C)(C)[C@@H]5CC[C@]43C)[C@@H]12 [Compound 51hh, (3β)-17-[2-[[2-[4-(Phenylmethyl)piperazin-1-yl]ethyl]amino]ethyl]-28-norlup-20(29)-en-3-ol, 3-(1-Hydrogen 2,2-Dimethylbutanedioate)] | 7.0 | 27.2 | 3.89 ± 0.18
C=C(C)[C@@H]1CC[C@]2(CCNCCN3CCS(=O)(=O)CC3)CC[C@]3(C)[C@H](CC[C@@H]4[C@@]5(C)CC[C@H](OC(=O)CC(C)(C)C(=O)O)C(C)(C)[C@@H]5CC[C@]43C)[C@@H]12 [Compound 51ee, (3β)-17-[[[2-[2-(1,1-Dioxothiomorpholin-4-yl)]Ethyl]Amino]Ethyl]-28-norlup-20(29)-en-3-ol, 3-(1-Hydrogen 2,2-Dimethylbutanedioate)] | 14.2 | 32.6 | 3.6 ± 0.22
